The text below walks through data of patent US11046659B2, “1,2,3-triazole derivative and insecticide and acaricide containing said derivative as active ingredient” (HOKKO CHEMICAL INDUSTRY CO., LTD., priority 2015, dated 2021).

This test concerns Tetranychus urticae. Briefly: Tetranychus urticae control test. The test is classed as in vivo. As to conditions: diluted emulsifiable concentrate 500 ppm sprayed on bean seedlings; female adults; eight days after the treatment; 25° C. On the procedure:
Test Example-4: Tetranychus urticae Control Test
Ten female adults of Tetranychus urticae were released on each of bean seedlings grown in a plastic cup. One day after the release, the bean seedlings were placed on a turntable, and 30 mL of a diluted emulsifiable concentrate (500 ppm) prepared according to Formulation Example 3 was uniformly sprayed thereon by means of a spray gun. After the treatment, the seedlings were placed in a constant temperature chamber at 25° C. (with lighting for 16 hours). Eight days after the treatment, the number of surviving parasitic insects was investigated, and the preventive value (%) was calculated according to the following calculating formula (b). Test was conducted in duplicate. Preventive value (%)={1−(number of parasitic insects on investigation day in treatment plot/number of parasitic insects on investigation day in non-treatment plot)}×100 Formula (b): […]

SMILES strings stand for the structures.

For `CCS(=O)(=O)c1cc(C(F)(F)F)cnc1-n1cc(-c2ccc(C(F)(F)F)cc2)nn1` [1-834], the preventive value was no less than 80%.
